Results from publication PMC9486541, “Design, synthesis and cytotoxic evaluation of novel betulonic acid-diazine derivatives as potential antitumor agents” (Frontiers in Chemistry, 2022).
Read-outs that look alike come from different tables or passages of the source.

Legend:
HepG2 = test: MTT assay, HepG2 cells; assay type: cell-based, human; details: read-out: Half maximal inhibitory concentration (IC50) values, HepG2
Excerpt: (§1) The human hepatocellular carcinoma cell line (HepG2), human hepatocellular carcinoma cell line (Bel-7402), human cervical cancer cell line (Hela), human breast adenocarcinoma cell line (MCF-7) and Madin-Darby canine kidney cell line (MDCK) were obtained from the Chinese Academy of Medical Sciences and Peking Union Medical College. Cultures were maintained as monolayer in RPMI-1640/DMEM supplemented with 10% (v/v) fetal bovine serum (FBS) and 1% (v/v) penicillin/streptomycin (Thermo Technologies, New York, NY, United States) under a humidified atmosphere containing 5% CO2 at 37°C. The BoA derivatives and positive control drugs (BoA and DDP) under study were dissolved in DMSO (Sigma, St. Louis, MO, United States) and added at required concentrations to the cell culture. Cells incubated without the preparations served as the control.
(§2) The antitumor activity was assessed by MTT assay, as previously reported ([Fang et al., 2018]). Each tested compound and positive control drugs were dissolved in DMSO and diluted with the medium to the test concentrations, and the final concentration of DMSO in the culture medium was controlled at less than 0.5% (v/v). Briefly, cells were cultured at 37°C and dispersed in replicates in 96-well plates with HepG2, Bel-7402, HeLa, MCF-7 and MDCK for 24 h. Fresh medium along with compounds (BoAA-BoAE, BoA2A-BoA2G, BoA3A-BoA3G, BoA4A-BoA4G) at different concentrations was then added to individual wells and incubated for 72 h, with BoA and DDP as the positive control. Experiments on FXR expression were separated into three groups: Control (PBS), BoA2C (8 μM), and BoA2C (8 μM) + DY268 (10 μM) ([Giordano et al., 2016]), with three repeating wells in each. In separate wells, BoA2C and DY268 were introduced and cultured for 72 h. After 72 h, the cell was incubated with MTT solution (0.5 mg/ml) for an additional 4 h at 37°C. The produced formazan crystals were solubilized with DMSO, and the optical density of solution was measured at 570 nm using a plate reader (BIORAD 550 spectrophotometer, Bio-rad Life Science Development Ltd., Beijing, China). Wells without drugs were used to be blanks. The IC50 values were defined as the concentration of compounds that produced a 50% proliferation inhibition of surviving cells and calculated using the Graph Pad Prism 5. The inhibitory rate was calculated in the following Equation 1, where OD is the optical density: % inhibition=[1−(OD Sample group−OD Blank group)/(OD Control group−OD Blank group)]×100% (1)

Bel-7402 = test: MTT assay, Bel-7402 cells; assay type: cell-based, human; details: read-out: Half maximal inhibitory concentration (IC50) values, Bel-7402
Excerpt: as §1, §2

Hela = test: MTT assay, Hela cells; assay type: cell-based, human; details: 72 h incubation, read-out: Half maximal inhibitory concentration (IC50) values, Hela
Excerpt: as §1, §2

MCF-7 = test: MTT assay, MCF-7 cells; assay type: cell-based, human; details: read-out: Half maximal inhibitory concentration (IC50) values, MCF-7
Excerpt: as §1, §2

MDCK = test: MTT assay, MDCK normal cell line; assay type: cell-based, canine; details: 72 h incubation, normal cell line, read-out: Half maximal inhibitory concentration (IC50) values, MDCK
Excerpt: as §1, §2

[1] = Homo sapiens, HepG2, 72 h incubation
[2] = Homo sapiens, Bel-7402, 72 h incubation
[3] = Homo sapiens, MCF7, 72 h incubation

Compound | IC50 (HepG2; [1]) | IC50 (Bel-7402; [2]) | IC50 (Hela; Homo sapiens, HeLa) | IC50 (MCF-7; [3]) | IC50 (MDCK; Canis lupus familiaris, MDCK) | melting point | IC50 (HepG2; 72 h incubation) | IC50 (Bel-7402; 72 h incubation) | IC50 (Hela) | IC50 (MCF-7; 72 h incubation) | IC50 (MDCK)
C=C(C)[C@@H]1CC[C@]2(C(=O)OCCCOC(=O)c3nc(C)c(C)nc3C)CC[C@]3(C)[C@H](CC[C@@H]4[C@@]5(C)CCC(=O)C(C)(C)[C@@H]5CC[C@]43C)[C@@H]12 [BoA3E, (3,5,6-Trimethylpyrazin-2-acyloxy)-propyl-3-oxolup-20(29)-en-28-oate] | 20.2 ± 0.53 µM | 11.2 ± 1.55 µM | 10.1 ± 0.15 µM | 29.5 ± 0.89 µM | > 30 µM | 57 to 59 °C | – | – | – | – | –
C=C(C)[C@@H]1CC[C@]2(C(=O)OCCCCOC(=O)c3cnc(C)cn3)CC[C@]3(C)[C@H](CC[C@@H]4[C@@]5(C)CCC(=O)C(C)(C)[C@@H]5CC[C@]43C)[C@@H]12 [BoA4C, (5-Methylpyrazin-2-acyloxy)-butyl-3-oxolup-20(29)-en-28-oate] | 22.2 ± 1.76 µM | 5.53 ± 0.46 µM | 17.9 ± 0.45 µM | 9.88 ± 1.49 µM | > 30 µM | – | – | – | – | – | –
C=C(C)[C@@H]1CC[C@]2(C(=O)OCCCOC(=O)c3cnc(C)cn3)CC[C@]3(C)[C@H](CC[C@@H]4[C@@]5(C)CCC(=O)C(C)(C)[C@@H]5CC[C@]43C)[C@@H]12 [BoA3C, (5-Methylpyrazin-2-acyloxy)-propyl-3-oxolup-20(29)-en-28-oate] | > 30 µM | 9.37 ± 1.31 µM | 30 ± 2.65 µM | 10 ± 0.19 µM | > 30 µM | 57 to 58 °C | – | – | – | – | –
C=C(C)[C@@H]1CC[C@]2(C(=O)OCCOC(=O)c3cncc(C)n3)CC[C@]3(C)[C@H](CC[C@@H]4[C@@]5(C)CCC(=O)C(C)(C)[C@@H]5CC[C@]43C)[C@@H]12 [BoA2D, (6-Methylpyrazin-2-acyloxy)-ethyl-3-oxolup-20(29)-en-28-oate] | 7.32 ± 2.88 µM | 8.22 ± 0.43 µM | 14.9 ± 1.84 µM | 8.32 ± 1.28 µM | > 30 µM | 139 to 141 °C | – | – | – | – | –
C=C(C)[C@@H]1CC[C@]2(C(=O)OCCOC(=O)c3ccnnc3)CC[C@]3(C)[C@H](CC[C@@H]4[C@@]5(C)CCC(=O)C(C)(C)[C@@H]5CC[C@]43C)[C@@H]12 [BoA2G] | > 30 µM | 24.8 ± 2.43 µM | 5.81 ± 0.24 µM | > 30 µM | 13 ± 0.46 µM | 130 to 132 °C | – | – | – | – | –
C=C(C)[C@@H]1CC[C@]2(C(=O)OCCCCOC(=O)c3ccnnc3)CC[C@]3(C)[C@H](CC[C@@H]4[C@@]5(C)CCC(=O)C(C)(C)[C@@H]5CC[C@]43C)[C@@H]12 [BoA4G, (Pyridazin-2-acyloxy)-butyl-3-oxolup-20(29)-en-28-oate] | 29.27 ± 0.22 µM | 19.4 ± 1.2 µM | 7.46 ± 1.99 µM | 12.8 ± 0.15 µM | 16.9 ± 1.03 µM | – | – | – | – | – | –
N.N.[Cl][Pt][Cl] [DDP, cisplatin, reference compound] | – | – | – | – | – | – | 5.23 ± 1.03 µM | 8.86 ± 1.32 µM | 9.84 ± 2.54 µM | 6.98 ± 0.32 µM | 13.7 ± 1.45 µM
C=C(C)[C@@H]1CC[C@]2(C(=O)O)CC[C@]3(C)[C@H](CC[C@@H]4[C@@]5(C)CCC(=O)C(C)(C)[C@@H]5CC[C@]43C)[C@@H]12 [BoA, betulonic acid] | > 30 µM | > 30 µM | 27 ± 1.06 µM | > 30 µM | > 30 µM | – | – | – | – | – | –
C=C(C)[C@@H]1CC[C@]2(C(=O)OCCCCOC(=O)c3ccncn3)CC[C@]3(C)[C@H](CC[C@@H]4[C@@]5(C)CCC(=O)C(C)(C)[C@@H]5CC[C@]43C)[C@@H]12 [BoA4F] | 30.2 ± 1.51 µM | > 30 µM | 25.9 ± 0.57 µM | 24.5 ± 5.17 µM | 27.22 ± 0.25 µM | – | – | – | – | – | –
C=C(C)[C@@H]1CC[C@]2(C(=O)OCCOC(=O)c3nccnc3C)CC[C@]3(C)[C@H](CC[C@@H]4[C@@]5(C)CCC(=O)C(C)(C)[C@@H]5CC[C@]43C)[C@@H]12 [BoA2B, (3-Methylpyrazin-2-acyloxy)-ethyl-3-oxolup-20(29)-en-28-oate] | 13.4 ± 1.82 µM | 10.1 ± 1.4 µM | 15.5 ± 0.81 µM | > 30 µM | > 30 µM | 60 to 62 °C | – | – | – | – | –
C=C(C)[C@@H]1CC[C@]2(C(=O)OCCCCOC(=O)c3cnccn3)CC[C@]3(C)[C@H](CC[C@@H]4[C@@]5(C)CCC(=O)C(C)(C)[C@@H]5CC[C@]43C)[C@@H]12 [BoA4A, (Pyrazin-2-acyloxy)-butyl-3-oxolup-20(29)-en-28-oate] | 12.9 ± 4 µM | 9.39 ± 0.73 µM | 13.82 ± 0.12 µM | 9.13 ± 0.4 µM | 25.3 ± 4.14 µM | 69 to 71 °C | – | – | – | – | –
C=C(C)[C@@H]1CC[C@]2(C(=O)OCCCOC(=O)c3ccncn3)CC[C@]3(C)[C@H](CC[C@@H]4[C@@]5(C)CCC(=O)C(C)(C)[C@@H]5CC[C@]43C)[C@@H]12 [BoA3F] | > 30 µM | 22.3 ± 5.85 µM | 21.1 ± 6.66 µM | > 30 µM | 17.9 ± 0.82 µM | 50 to 52 °C | – | – | – | – | –
C=C(C)[C@@H]1CC[C@]2(C(=O)OCCOC(=O)c3cnccn3)CC[C@]3(C)[C@H](CC[C@@H]4[C@@]5(C)CCC(=O)C(C)(C)[C@@H]5CC[C@]43C)[C@@H]12 [BoA2A, (Pyrazin-2-acyloxy)-ethyl-3-oxolup-20(29)-en-28-oate] | 13.7 ± 0.25 µM | 8.76 ± 0.84 µM | 25 ± 0.97 µM | 9.86 ± 0.36 µM | > 30 µM | 85 to 87 °C | – | – | – | – | –
C=C(C)[C@@H]1CC[C@]2(C(=O)OCCCCOC(=O)c3cncc(C)n3)CC[C@]3(C)[C@H](CC[C@@H]4[C@@]5(C)CCC(=O)C(C)(C)[C@@H]5CC[C@]43C)[C@@H]12 [BoA4D, (6-Methylpyrazin-2-acyloxy)-butyl-3-oxolup-20(29)-en-28-oate] | > 30 µM | 16.3 ± 0.9 µM | 15.7 ± 2.15 µM | > 30 µM | > 30 µM | – | – | – | – | – | –
C=C(C)[C@@H]1CC[C@]2(C(=O)OCc3cnccn3)CC[C@]3(C)[C@H](CC[C@@H]4[C@@]5(C)CCC(=O)C(C)(C)[C@@H]5CC[C@]43C)[C@@H]12 [BoAA, Pyrazin-2-ylmethyl-3-oxolup-20(29)-en-28-oate] | 13.5 ± 1.8 µM | 8.16 ± 2.08 µM | 18.3 ± 1.63 µM | 15.7 ± 0.55 µM | > 30 µM | – | – | – | – | – | –
C=C(C)[C@@H]1CC[C@]2(C(=O)OCCCOC(=O)c3cncc(C)n3)CC[C@]3(C)[C@H](CC[C@@H]4[C@@]5(C)CCC(=O)C(C)(C)[C@@H]5CC[C@]43C)[C@@H]12 [BoA3D, (6-Methylpyrazin-2-acyloxy)-propyl-3-oxolup-20(29)-en-28-oate] | 8.65 ± 0.6 µM | 6.42 ± 0.66 µM | 9.5 ± 0.28 µM | 5.6 ± 0.25 µM | 17 ± 3.01 µM | 59 to 60 °C | – | – | – | – | –
C=C(C)[C@@H]1CC[C@]2(C(=O)OCCCCOC(=O)c3nccnc3C)CC[C@]3(C)[C@H](CC[C@@H]4[C@@]5(C)CCC(=O)C(C)(C)[C@@H]5CC[C@]43C)[C@@H]12 [BoA4B, (3-Methylpyrazin-2-acyloxy)-butyl-3-oxolup-20(29)-en-28-oate] | 21.8 ± 2.46 µM | 3.92 ± 1.1 µM | 11.5 ± 0.93 µM | > 30 µM | > 30 µM | 54 to 55 °C | – | – | – | – | –
C=C(C)[C@@H]1CC[C@]2(C(=O)OCCCOC(=O)c3cnccn3)CC[C@]3(C)[C@H](CC[C@@H]4[C@@]5(C)CCC(=O)C(C)(C)[C@@H]5CC[C@]43C)[C@@H]12 [BoA3A, (Pyrazin-2-acyloxy)-propyl-3-oxolup-20(29)-en-28-oate] | 4.82 ± 0.3 µM | 6.09 ± 0.12 µM | 20.4 ± 0.56 µM | 6.85 ± 1.82 µM | > 30 µM | 74 to 76 °C | – | – | – | – | –
C=C(C)[C@@H]1CC[C@]2(C(=O)OCCCOC(=O)c3ccnnc3)CC[C@]3(C)[C@H](CC[C@@H]4[C@@]5(C)CCC(=O)C(C)(C)[C@@H]5CC[C@]43C)[C@@H]12 [BoA3G] | > 30 µM | 25.2 ± 2.44 µM | 4 ± 0.32 µM | 13.4 ± 0.51 µM | 18.5 ± 0.42 µM | 68 to 71 °C | – | – | – | – | –
